The results in this text go back to patent US20200246308A1, “SYNERGISTIC COMBINATIONS OF UROLITHINS A AND B FOR IMPROVING COGNITIVE CAPACITY OR COGNITIVE FUNCTION” (Natreon, Inc., priority 2018, published 2020).

Assay [1] deals with acetylcholine (ACh) level in HIP tissue. The experiment in a line: Acetylcholine level in hippocampal tissue, Amplex Red kit (Example 9D). In kind it is in vivo, Male Wistar rats. The settings on record: p.o. 7 days: B 50, A 50, Donepezil 3, B:A 10:50 and 50:50, Shilajit 50 mg/kg. As to the method:
(§1) Drug solution was freshly prepared in 0.3% CMC and administered by oral gavage once a day, for a period of 7 days. Briefly, the whole experiment was conducted for 8 days. Scopolamine (1 mg/kg), a muscarinic receptor antagonist, was dissolved in normal saline (0.9% NaCl) and administered intraperitoneally 1 h after drugs administration on seventh day.
Sample preparation: The animals were killed by decapitation and the brain tissues were dissected out in ice-cold conditions and stored at −80° C. until use. Tissue was homogenized in 1.0 ml of 0.1M perchloric acid with a Potter-Elvehjem homogenizer. The homogenate was kept in the polypropylene tubes for 15 min after which 40 μl of 4M potassium acetate was added to adjust the pH to 4.0 followed by centrifugation for 15 min at 4000×g. Supernatant was used to estimate acetylcholine and AChE activities.
Samples were prepared as in Example 9C. The amount of acetylcholine in brain tissues was measured using Amplex red assay kit (Molecular Probes, Inc., USA). An acetylcholine standard curve was used in each experiment. Briefly, the reactions are initiated by adding 0.1 ml of control (10 μM H2O2) and tissue homogenates were taken in two separate polypropylene tubes and then 0.1 ml working solution of 400 μM Amplex Red reagent containing 2 U/mL HRP, 0.2 U/mL choline oxidase and 1 U/mL acetylcholinesterase were added to each tube. After incubation for 45 min, the fluorescence was recorded with the help of spectrofluorometer at 530 nm excitation and 590 nm emission wavelengths. The protein content was determined using standard protocol (Lowry, et al., 1951).
Statistical analyses: The results were expressed as means±Standard Error mean (SEM). The intergroup variation was measured by one-way ANOVA followed by Student-Newman-Keuls test. Two-way followed by Bonferroni test was employed to discover the intergroup variation in Y maze test considering groups and arms as two independent variables. Statistical analysis was done by using Graph Pad prism version 5 (San Diego, Calif.). A level of p<0.05 was accepted as statistically significant.

The target in assay [2] is T1, recombinant human Acetylcholinesterase-induced β-Amyloid (Aβ40) Aggregation (Homo sapiens, UniProt P22303).
T1 construct: purchased Sigma Aldrich
The experiment in a line: Inhibition of human recombinant AChE-induced β-amyloid peptide aggregation, ThT method. In kind it is biochemical. To be noted: test compounds 50 μM, B:A in μM, 48 h. As for the experimental part: The Aβ1-40 (10 μM and 30 μM) was incubated alone and independently with different concentrations of test compounds in the ratios shown in Tables 6 and 7, respectively.
2 μL of different concentrations of Aβ40 (10 and 30 μM) was incubated with 16 μL of AChE in the presence of different ratio of test compounds to obtain final concentrations of 30 or 10 μM Aβ40, […], 10, 20, 50 μM test compounds and 2 μL assay buffer ([…]). The mixture was incubated at room temperature for 24 or 48 hr in dark (Time period may be changed according to experiment).
Fluorescence intensities were obtained for Aβ40 aggregation in the presence of inhibitors, in the absence of inhibitors and the blanks or solvent control. After incubation, 178 μL of 20 μM ThT was added.
The percentage inhibition of the AChE-induced Aβ1-40 aggregation was calculated as follows.
Chemical reagents and starting materials were employed as above.

In assay [3] the test system is scopolamine induced amnesic rat model. Nature of the assay: Y-maze test, scopolamine induced amnesic rat model (Example 9A). In kind it is in vivo, Male Wistar rats. To be noted: scopolamine 1 mg/kg i.p.; for Curiosity behavior (total arm entries), trial-1 and trial-2 / Spatial recognition memory (known vs novel arm entries %), trial-2: p.o. 7 days: B 50, A 50, B:A 10:50 and 50:50 mg/kg; for Curiosity behavior (total arm entries), trial-1 and trial-2: Shilajit 25 mg/kg b.i.d; for Coping behavior to novel environment (% time in novel arm), trial-2: p.o. 7 days: B 50, A 50, B:A 10:50 and 50:50, Shilajit 50 mg/kg. As for the experimental part:
The experiment was conducted in accordance with the Principles of laboratory animal care. Male Wistar rats (200-250 g) were purchased from the Central Animal House, Institute of Medical Sciences, Banaras Hindu University (BHU), Varanasi, India. Experiments on animals were approved by the Institutional Animal Ethics Committee of BHU, Varanasi, India. The animals were housed in polypropylene cages under controlled environmental conditions of temperature of 25±1° C. and 45-55% relative humidity and a 12:12 h light/dark cycle. The experimental animals had free access to commercial rat feed and water ad libitum during the experiment. Animals were acclimatized for at least one week before using them for experiments and exposed only once to the experiment.
Rats were randomly allocated into eight study groups containing six in each group (n=6), as follows:
as §1
Assessment of short term memory by Y maze test paradigm. The Y-maze test was performed essentially to assess spatial recognition memory, general exploratory behavior and anxiety-like behavior by following the standard protocol (Dellu, F., Mayo, W., Cherkaoui, J., Le Moal, M., Simon, H., “A two-trial memory task with automated recording: study in young and aged rats,” Brain Res. (1992) 588: 132-139). The Y-maze apparatus consists of three identical arms (50 cm long, 16 cm wide and 32 cm high) at 120° angles to each other, radiating out from a central point. Visual cues made from colored construction paper and laboratory glassware were placed around the perimeter of the maze and above the top of the black plexiglass sides and these cues were not repeated for each test to maintain novelty to the animals. The novel arm of the Y-maze was blocked and rats were allowed to visit the other two arms of the maze for 15 min. Four hours after the first phase, animals had free access to all three arms for 5 min. The number of entries in each arm was recorded for a 5-min period. The dependent variables such as the total number of entries in all arms (for the 5 min of trial 1 and 2), the % entries in known and novel arms for the 5 min period of trial 2 and the percentage of ratio of time spent in novel arm to time spent in all the arms and in the center of the apparatus during trial 2 were measured. The total number of entries in all arms (for the 5 min of trial 1 and 2) is indicative of general exploration attitude (curiosity) and the % entries in known versus novel arm for the 5 min period of trial 2 is considered as a measure of arm discrimination (spatial recognition memory). Coping strategy or behavior to novel environment was estimated by the percentage of time spent in novel arm to time spent in all arms and in the center of the apparatus during trial 2. The decrease in the coping behavior to novel environment was considered as increase in anxiety-like behavior. An arm entry was counted when the head and two front paws were inside the arm, and duration of an arm visit was ended when the head and two front paws were outside the arm again.

T1 sequence (P22303 32-614): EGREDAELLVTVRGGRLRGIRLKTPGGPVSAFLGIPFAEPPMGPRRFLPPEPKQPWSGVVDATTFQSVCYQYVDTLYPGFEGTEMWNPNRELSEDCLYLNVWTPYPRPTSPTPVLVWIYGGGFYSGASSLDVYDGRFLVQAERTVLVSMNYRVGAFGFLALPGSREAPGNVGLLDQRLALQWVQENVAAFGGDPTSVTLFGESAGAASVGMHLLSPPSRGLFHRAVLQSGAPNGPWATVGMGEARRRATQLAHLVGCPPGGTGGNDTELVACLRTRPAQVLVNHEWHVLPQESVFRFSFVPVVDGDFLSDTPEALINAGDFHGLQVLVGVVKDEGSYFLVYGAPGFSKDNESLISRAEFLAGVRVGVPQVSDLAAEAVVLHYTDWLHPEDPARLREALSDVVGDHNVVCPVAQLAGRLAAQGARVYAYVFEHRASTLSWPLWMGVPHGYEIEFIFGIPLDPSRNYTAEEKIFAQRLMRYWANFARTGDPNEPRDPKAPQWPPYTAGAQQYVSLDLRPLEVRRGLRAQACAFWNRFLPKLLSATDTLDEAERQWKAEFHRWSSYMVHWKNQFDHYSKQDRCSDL

As to `O=c1oc2cc(O)ccc2c2ccc(O)cc12` [Urolithin A, 3,8-dihydroxy-dibenzo-alpha-pyrone], the “Scopolamine-induced decrease in ACh level in HIP tissue” value in assay [1] is on record as “attenuated the scopolamine induced decrease in ACh level”. In assay [2] (Aβ40 30 μM), the “inhibition of Aβ40 aggregation” value is ~30%. Besides, the “inhibition of Aβ40 aggregation” value in assay [2] (amyloid beta 10 μM) was ~34%. Moreover, in assay [3], the “Curiosity behavior (total arm entries), trial-1 and trial-2” value is “attenuated the scopolamine induced decrease in curiosity behavior”; the “Spatial recognition memory (known vs novel arm entries %), trial-2” value is listed as “significantly reversed the scopolamine induced failed the discrimination behavior but not similar as to the vehicle group”; the “Coping behavior to novel environment (% time in novel arm), trial-2” value is reported as “attenuated the scopolamine-induced decrease in coping strategy to a novel environment but not similar to that vehicle group”.

With `O=c1oc2cc(O)ccc2c2ccccc12` [Urolithin B, 3-hydroxy-dibenzo-alpha-pyrone], in assay [1], the “Scopolamine-induced decrease in ACh level in HIP tissue” value is listed as “attenuated the scopolamine induced decrease in ACh level”. The “inhibition of Aβ40 aggregation” value in assay [2] (Aβ40 30 μM) was ~43%. The “inhibition of Aβ40 aggregation” value in assay [2] (amyloid beta 10 μM) is ~46%. In assay [3], the “Curiosity behavior (total arm entries), trial-1 and trial-2” value is “attenuated the scopolamine induced decrease in curiosity behavior”; the “Spatial recognition memory (known vs novel arm entries %), trial-2” value is “significantly reversed the scopolamine induced failed the discrimination behavior but not similar as to the vehicle group”; the “Coping behavior to novel environment (% time in novel arm), trial-2” value is “attenuated the scopolamine-induced decrease in coping strategy to a novel environment but not similar to that vehicle group”.
